Experimental data: PubChem BioAssay (NCI)
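Tested at 5 concentrations; 48 h exposure; 96-well plates; endpoints linearly interpolated, else capped at highest concentration. TGI denotes the concentration required for complete inhibition of growth.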

Experiments:
Test in all cases: NCI-60 cell line screen, 48 h
LOX IMVI melanoma = tested on: LOX IMVI melanoma
SNB-19 CNS = tested on: SNB-19 CNS
MCF7 breast = tested on: MCF7 breast
IGROV1 ovarian = tested on: IGROV1 ovarian
HL-60(TB) leukemia = tested on: HL-60(TB) leukemia
MDA-N = tested on: MDA-N
SNB-75 CNS = tested on: SNB-75 CNS
A549 NSCLC = tested on: A549 NSCLC
SK-MEL-2 melanoma = tested on: SK-MEL-2 melanoma
SN12C renal = tested on: SN12C renal
TK-10 renal = tested on: TK-10 renal
SF-295 CNS = tested on: SF-295 CNS
OVCAR-8 ovarian = tested on: OVCAR-8 ovarian
HOP-92 NSCLC = tested on: HOP-92 NSCLC
K-562 leukemia = tested on: K-562 leukemia
KM12 colon = tested on: KM12 colon
OVCAR-5 ovarian = tested on: OVCAR-5 ovarian
SR leukemia = tested on: SR leukemia
UACC-62 melanoma = tested on: UACC-62 melanoma
SF-539 CNS = tested on: SF-539 CNS
NCI/ADR-RES ovarian = tested on: NCI/ADR-RES ovarian
NCI-H522 lung = tested on: NCI-H522 lung
SF-268 CNS = tested on: SF-268 CNS
HCC-2998 colon = tested on: HCC-2998 colon
HOP-62 NSCLC = tested on: HOP-62 NSCLC
UACC-257 melanoma = tested on: UACC-257 melanoma
NCI-H23 lung = tested on: NCI-H23 lung
DU-145 prostate = tested on: DU-145 prostate
HCT-15 colon = tested on: HCT-15 colon
MOLT-4 leukemia = tested on: MOLT-4 leukemia
NCI-H460 lung = tested on: NCI-H460 lung
SK-MEL-5 melanoma = tested on: SK-MEL-5 melanoma
OVCAR-4 ovarian = tested on: OVCAR-4 ovarian
T-47D breast = tested on: T-47D breast
HS 578T breast = tested on: HS 578T breast
A498 renal = tested on: A498 renal
SK-MEL-28 melanoma = tested on: SK-MEL-28 melanoma
SW-620 colon = tested on: SW-620 colon
RPMI-8226 leukemia = tested on: RPMI-8226 leukemia
HCT-116 colon = tested on: HCT-116 colon
NCI-H226 lung = tested on: NCI-H226 lung
ACHN renal = tested on: ACHN renal
MALME-3M melanoma = tested on: MALME-3M melanoma
PC-3 prostate = tested on: PC-3 prostate
OVCAR-3 ovarian = tested on: OVCAR-3 ovarian
U251 CNS = tested on: U251 CNS
M14 melanoma = tested on: M14 melanoma
COLO 205 colon = tested on: COLO 205 colon
MDA-MB-231 breast = tested on: MDA-MB-231 breast
786-0 renal = tested on: 786-0 renal
HT29 colon = tested on: HT29 colon
RXF 393 renal = tested on: RXF 393 renal
SK-OV-3 ovarian = tested on: SK-OV-3 ovarian
BT-549 breast = tested on: BT-549 breast
EKVX NSCLC = tested on: EKVX NSCLC
MDA-MB-435 = tested on: MDA-MB-435
CAKI-1 renal = tested on: CAKI-1 renal
UO-31 renal = tested on: UO-31 renal

Oc1c(C(O)(c2ccccc2)c2ccc3ccccc3c2O)ccc2ccccc12
TGI (LOX IMVI melanoma): 31.3 µM
TGI (SNB-19 CNS): 28.7 µM
TGI (MCF7 breast): 24 µM
TGI (IGROV1 ovarian): 24.7 µM
TGI (HL-60(TB) leukemia): 13.9 µM
TGI (MDA-N): 28.5 µM
TGI (SNB-75 CNS): 34.5 µM
TGI (A549 NSCLC): 30.4 µM
TGI (SK-MEL-2 melanoma): 26.4 µM
TGI (SN12C renal): 23.1 µM
TGI (TK-10 renal): 26.8 µM
TGI (SF-295 CNS): 47.9 µM
TGI (OVCAR-8 ovarian): 29.7 µM
TGI (HOP-92 NSCLC): 24.1 µM
TGI (K-562 leukemia): 15.7 µM
TGI (KM12 colon): 25.4 µM
TGI (OVCAR-5 ovarian): 38.3 µM
TGI (SR leukemia): 10.7 µM
TGI (UACC-62 melanoma): 22.8 µM
TGI (SF-539 CNS): 36.1 µM
TGI (NCI/ADR-RES ovarian): 43.1 µM
TGI (NCI-H522 lung): 16.5 µM
TGI (SF-268 CNS): 28.4 µM
TGI (HCC-2998 colon): 20 µM
TGI (HOP-62 NSCLC): 35.6 µM
TGI (UACC-257 melanoma): 23.4 µM
TGI (NCI-H23 lung): 23.1 µM
TGI (DU-145 prostate): 34.6 µM
TGI (HCT-15 colon): 25.9 µM
TGI (MOLT-4 leukemia): 5.56 µM
TGI (NCI-H460 lung): 22.3 µM
TGI (SK-MEL-5 melanoma): 18 µM
TGI (OVCAR-4 ovarian): > 47.8 µM
TGI (T-47D breast): 32.5 µM
TGI (HS 578T breast): 27.8 µM
TGI (A498 renal): 30.6 µM
TGI (SK-MEL-28 melanoma): 33.3 µM
TGI (SW-620 colon): 41.8 µM
TGI (RPMI-8226 leukemia): 5.32 µM
TGI (HCT-116 colon): 21.8 µM
TGI (NCI-H226 lung): 36.5 µM
TGI (ACHN renal): 23.3 µM
TGI (MALME-3M melanoma): 26.4 µM
TGI (PC-3 prostate): 20.7 µM
TGI (OVCAR-3 ovarian): 30.8 µM
TGI (U251 CNS): 21.8 µM
TGI (M14 melanoma): 31 µM
TGI (COLO 205 colon): 31.9 µM
TGI (MDA-MB-231 breast): 33.6 µM
TGI (786-0 renal): > 69 µM
TGI (HT29 colon): 33 µM
TGI (RXF 393 renal): 25.3 µM
TGI (SK-OV-3 ovarian): 38.3 µM
TGI (BT-549 breast): 42.3 µM
TGI (EKVX NSCLC): 50.7 µM
TGI (MDA-MB-435): 40.6 µM
TGI (CAKI-1 renal): 33.8 µM
TGI (UO-31 renal): 24.7 µM

Nc1nc(-c2ccccc2)c(-c2ccccc2)c(-c2nc(N)nc(-c3ccccc3)c2-c2ccccc2)n1
TGI (LOX IMVI melanoma): > 100 µM
TGI (SNB-19 CNS): > 100 µM
TGI (MCF7 breast): > 100 µM
TGI (IGROV1 ovarian): > 100 µM
TGI (HL-60(TB) leukemia): > 100 µM
TGI (MDA-N): > 100 µM
TGI (SNB-75 CNS): > 100 µM
TGI (A549 NSCLC): > 100 µM
TGI (SK-MEL-2 melanoma): > 100 µM
TGI (SN12C renal): > 100 µM
TGI (TK-10 renal): > 100 µM
TGI (SF-295 CNS): > 100 µM
TGI (OVCAR-8 ovarian): > 100 µM
TGI (HOP-92 NSCLC): > 100 µM
TGI (K-562 leukemia): > 100 µM
TGI (KM12 colon): > 100 µM
TGI (OVCAR-5 ovarian): > 100 µM
TGI (SR leukemia): > 100 µM
TGI (UACC-62 melanoma): > 100 µM
TGI (SF-539 CNS): > 100 µM
TGI (NCI/ADR-RES ovarian): > 100 µM
TGI (NCI-H522 lung): > 100 µM
TGI (SF-268 CNS): > 100 µM
TGI (HCC-2998 colon): > 100 µM
TGI (HOP-62 NSCLC): > 100 µM
TGI (UACC-257 melanoma): > 100 µM
TGI (NCI-H23 lung): > 100 µM
TGI (DU-145 prostate): > 100 µM
TGI (HCT-15 colon): > 100 µM
TGI (MOLT-4 leukemia): > 100 µM
TGI (NCI-H460 lung): > 100 µM
TGI (SK-MEL-5 melanoma): > 100 µM
TGI (OVCAR-4 ovarian): > 100 µM
TGI (T-47D breast): > 100 µM
TGI (HS 578T breast): > 100 µM
TGI (A498 renal): > 100 µM
TGI (SK-MEL-28 melanoma): > 100 µM
TGI (SW-620 colon): > 100 µM
TGI (HCT-116 colon): > 100 µM
TGI (NCI-H226 lung): > 100 µM
TGI (ACHN renal): > 100 µM
TGI (MALME-3M melanoma): > 100 µM
TGI (PC-3 prostate): > 100 µM
TGI (OVCAR-3 ovarian): > 100 µM
TGI (U251 CNS): > 100 µM
TGI (M14 melanoma): > 100 µM
TGI (COLO 205 colon): > 100 µM
TGI (MDA-MB-231 breast): > 100 µM
TGI (786-0 renal): > 100 µM
TGI (HT29 colon): > 100 µM
TGI (RXF 393 renal): > 100 µM
TGI (SK-OV-3 ovarian): > 100 µM
TGI (BT-549 breast): > 100 µM
TGI (EKVX NSCLC): > 100 µM
TGI (MDA-MB-435): > 100 µM
TGI (CAKI-1 renal): > 100 µM
TGI (UO-31 renal): > 100 µM
